Measured values from patent EP4563579A1, “MACROCYCLIC EGFR INHIBITOR, AND PREPARATION METHOD THEREFOR AND PHARMACEUTICAL USE THEREOF” (Abbisko Therapeutics Co., Ltd., priority 2022, dated 2024).

Assays:
[1] = test system: Ba/F3 EGFR-L858R-T790M-C797S (LTC); experiment: Cell proliferation assay (CellTiter-Glo), Ba/F3 LTC; format: cell-based; settings: Mus musculus, BaF3; Ba/F3 EGFR-L858R-T790M-C797S cells, 72 hour incubation, CTG readout
Description: (§1) • DMEM Medium (Gibco, Cat#11965118) • RPMI1640 Medium (Gibco, Cat#11875119) • Fetal Bovine Serum (FBS) (GBICO, Cat#10099-141) • CellTiter-Glo® Luminescent Cell Viability Assay Kit (Promega, Cat#G7572) 96-well, Black, Clear Flat Bottom Plate (Corning®, Cat# 3603)
(§2) • SpectraMax Multimode Microplate Reader MD, 2104-0010A; • CO2 Incubator, Thermo Scientific 3100 Series; • Biosafety Cabinet, Thermo Scientific, 1300 Series A2; • Inverted Microscope, Olympus, CKX41SF; • Siemens Refrigerator, KK25E76TI.
(§3) • 1. Cell Culture and Inoculation: • (1) Harvest cells in a logarithmic growth phase and count the cells using a […]. Test cell viability using a trypan blue exclusion method to ensure that cell viability is above 90%. • (2) Adjust the cell concentration to desired final density; and add 90 µL of cell suspension to a 96-well plate. • (3) Incubate the cells overnight at 37°C, under 5% CO2 and 95% humidity in the 96-well plate. • 2. T0 Reference Data: • (1) Add 10 µL PBS to each well of the T0 plate containing cells. • (2) Thaw the CTG reagent and equilibrate the plate to room temperature for 30 minutes. • (3) Add an equal volume of CTG solution to each well. • (4) Lyse cells by shaking on an orbital shaker for 5 minutes. • (5) Leave the plate at room temperature for 20 minutes to stabilize the luminescence signal. • (6) Read the T0 […]. • 3. Compound Dilution and Addition • (1) Add a corresponding volume of DMSO to a corresponding compound powder according to the compound information sheet to prepare a 10 mM stock solution. • (2) Prepare 1000-fold and 3.16-fold diluted compound solutions. • (3) Dilute the 1000× diluted compound solution 100-fold with PBS to prepare a 10-fold compound solution, with a maximum concentration of 10 µM, nine concentrations and 3.16-fold dilution. Then add 10 µL of the drug solution concentration to individual wells of the 96-well plate seeded with cells. Test each compound concentration in triplicate wells, and the final DMSO concentration is 0.1%. • (4) Incubate the cells in the 96-well plate containing the drug compounds at 37°C, under 5% CO2, and 95% humidity for an additional 72 hour period prior to performing the CTG analysis. • 4. Fluorescence Signal Reading • (1) Thaw the CTG reagent and equilibrate the plate to room temperature for 30 minutes. • (2) Add an equal volume of CTG solution to each well. • (3) Lyse cells by shaking on an orbital shaker for 5 minutes. • (4) Leave the plate at room temperature for 20 minutes to stabilize the […]. • (5) Read fluorescence value. • 5. Data Processing
(§4) Analyze the data by using GraphPad Prism 7.0 software, and use Non-linear S-curve regression to fit the dose-response curves, to calculate the IC50 values (in nM). The specific experiment results are presented in Table 1: [formula] Table 1: Biology Test Results

A431 WT = experiment: Cell proliferation assay (CellTiter-Glo), A431 WT; format: cell-based; settings: Homo sapiens, A-431; A431 WT cells, 72 hour incubation, CTG readout
Description: as §1, §2, §3, §4

[2] = test system: Ba/F3 EGFR-DEL19-T790M-C797S (DTC); experiment: Cell proliferation assay (CellTiter-Glo), Ba/F3 DTC; format: cell-based; settings: Ba/F3 EGFR-DEL19-T790M-C797S cells, 72 hour incubation, CTG readout; read-out: IC50 BaF3 DTC
Description: as §1, §2, §3, §4

[3] = test system: Ba/F3 EGFR-L858R-C797S (LC); experiment: Cell proliferation assay (CellTiter-Glo), Ba/F3 LC; format: cell-based; settings: Mus musculus, BaF3; Ba/F3 EGFR-L858R-C797S cells, 72 hour incubation, CTG readout
Description: as §1, §2, §3, §4

[4] = test system: Ba/F3 EGFR-DEL19-C797S (DC); experiment: Cell proliferation assay (CellTiter-Glo), Ba/F3 DC; format: cell-based; settings: Mus musculus, BaF3; Ba/F3 EGFR-DEL19-C797S cells, 72 hour incubation, CTG readout
Description: as §1, §2, §3, §4

[5] = Pharmacokinetic experiment in mice; format: in vivo; settings: male, mouse; ICR mice, single oral administration (PO), 10 mg/kg, plasma
Source text: The purpose of this trial is to study the pharmacokinetic behavior of some compounds of the present invention, and the administration method is: Single oral administration (PO) to ICR mice.
The compounds used in this trial are from the compounds in the specific examples of the present invention and the listed positive compounds.
ICR mice male N=9 original source: Shanghai Sippr-Bk Lab Animal Co., Ltd.
The compounds are weighed and dissolved in the corresponding solution (10% PG + 10% Solutol® + 80% pH3 citrate buffer). The mixture is then shaken well and sonicated to prepare a 1 mg/mL stock solution. Nine mice are orally administered at a dose of 10 mg/kg (or IV 2 mg/kg) after an overnight fast.
About 90 µL of blood is collected via the submandibular vein per time point, heparin sodium anticoagulant is added, the sample is placed on ice after collection, and plasma is centrifuged within 1 hour (centrifugation conditions: 8,000 rpm, 6 minutes, 2-8°C). The blood collection timepoints are 0, 0.25, 0.5, 1, 2, 4, 6, 8 and 24 h. The samples are stored in a -20°C refrigerator.
The plasma sample is 40 µL, 160 µL of ice-cold acetonitrile containing internal standard is added, vortexed for 3 minutes, and centrifuged at 11,000 rpm for 5 minutes. 100 µL of the supernatant is taken and added to 100 µL of water, 5 µL of the sample is taken and injected into LC/MS/MS for analysis.

In the case of `CN1CCC(C#Cc2nn3c4cc(ncc24)Nc2ccnc(n2)-c2cnn(C)c2OCC2(CCCC2)C3)C1` (stereo not drawn) [Example 2, 1'-methyl-3-((1-methylpyrrolidin-3-yl)ethynyl)spiro(cyclopentane-1,6'-8-oxa-3-aza-4(6,1)-pyrazolo[4,3-c]pyridina-2(2,4)-pyrimidina-1(4,5)-pyrazolacyclooctaphane)], the IC50 [1] is reported as 12.8 nM, the IC50 (A431 WT) is reported as 603 nM and the IC50 [2] is reported as 17.5 nM. For the same compound, the IC50 [3] was 21.1 nM and the IC50 [4] was 30.4 nM.
Work on `CN1CCC(C#Cc2nn3c4cc(ncc24)Nc2ccnc(n2)-c2cnn(C)c2OCC2(CCOCC2)C3)CC1` [Example 4, 1'-methyl-3'-((1-methylpiperidin-4-yl)ethynyl)-2,3,5,6-te trahydrospiro(pyran-4,6'-8-oxa-3-aza-4(6,1)-pyrazolo[4,3-c]pyridina-2(2,4)-pyrimidina-1(4,5)-pyrazolacyclooctaphane)] yielded an IC50 [1] of 12.4 nM, an IC50 (A431 WT) of 822 nM and an IC50 [2] of 15.6 nM. It also gave an IC50 [3] of 50.3 nM and an IC50 [4] of 26.8 nM.
Work on `CN1CCC(C#Cc2nn3c4cc(ncc24)Nc2ccnc(n2)-c2cnn(C)c2OCC2(CCC2)C3)CC1` [Example 5, 1'-methyl-3'-((1-methylpiperidin-4-yl)ethynyl)spiro(cyclobutane-1,6'-8-oxa-3-aza-4(6,1)-pyrazolo[4,3-c]pyridina-2(2,4)-pyrimidina-1(4,5)-pyrazolacyclooctaphane)] yielded an IC50 [1] of 9.2 nM, an IC50 (A431 WT) of 1080 nM and an IC50 [2] of 4.7 nM. For the same compound, the IC50 [3] was 14 nM and the IC50 [4] was 19.7 nM.
For `CN1CC(C#Cc2nn3c4cc(ncc24)Nc2ccnc(n2)-c2cnn(C)c2OCC2(CCCC2)C3)C1` [Example 8, 1'-methyl-3'-((1-methylazetidin-3-yl)ethynyl)spiro(cyclopentane-1,6'-8-oxa-3-aza-4(6,1)-pyrazolo[4,3-c]pyridina-2(2,4)-pyrimidina-1(4,5)-pyrazolacyclooctaphane)], the IC50 [1] was 39.4 nM, the IC50 (A431 WT) was 499 nM and the IC50 [2] was 27.8 nM. For the same compound, the IC50 [3] was 63.5 nM and the IC50 [4] was 31.5 nM.
`CN1CCC(F)(C#Cc2nn3c4cc(ncc24)Nc2ccnc(n2)-c2cnn(C)c2OCC2(CCCC2)C3)CC1` [Example 9, 3'-((4-fluoro-1-methylpiperidin-4-yl)ethynyl)-1'-methyls piro(cyclopentane-1,6'-8-oxa-3-aza-4(6,1)-pyrazolo[4,3-c]pyridina-2(2,4)-pyrimidina-1(4,5)-pyrazolacyclooctaphane)] gave an IC50 [1] of 47 nM, an IC50 (A431 WT) of 1920 nM and an IC50 [2] of 18.4 nM. For the same compound, the IC50 [3] was 62.7 nM and the IC50 [4] was 32.8 nM.
Work on `CN1CCC(F)(C#Cc2nn3c4cc(ncc24)Nc2ccnc(n2)-c2cnn(C)c2OCC2(CCOCC2)C3)CC1` [Example 11, 3'-((4-fluoro-1-methylpiperidin-4-yl)ethynyl)-1'-methyl-2,3,5,6-tetrahydrospiro(pyran-4,6'-8-oxa-3-aza-4(6,1)-pyrazolo[4,3-c]pyridina-2(2,4)-pyrimidina-1(4,5)-pyrazolacyclooctaphane)] yielded an IC50 [1] of 133 nM, an IC50 (A431 WT) of 807 nM and an IC50 [2] of 92.2 nM. It also gave an IC50 [3] of 187 nM and an IC50 [4] of 128 nM.
For `Cn1ncc2c1OCC1(CCCC1)Cn1nc(N3CC[C@@H](CO)C3)c3cnc(cc31)Nc1ccnc-2n1` [Example 21, (R)-(1-(1'-methylspiro(cyclopentane-1,6'-8-oxa-3-aza-4(6,1)-pyrazolo[4,3-c]pyridina-2(2,4)-pyrimidina-1(4,5) -pyrazolacyclooctaphane)-3 '-yl)pyrrolidin-3-yl)methanol], the IC50 [1] was 4.7 nM, the IC50 (A431 WT) was 171 nM and the IC50 [2] was 3.4 nM. The IC50 [3] was 15.8 nM and the IC50 [4] was 7.1 nM.
With `Cn1ncc2c1OCC1(CCCC1)Cn1nc(N3CC[C@@H](O)C3)c3cnc(cc31)Nc1ccnc-2n1` [Example 22, (R)-1-(1'-methylspiro(cyclopentane-1,6'-8-oxa-3-aza-4(6,1)-pyrazolo[4,3-c]pyridina-2(2,4)-pyrimidina-1(4,5)-pyrazolacyclooctaphane)-3' -yl)pyrrolidin-3-ol] the IC50 [1] was 5.9 nM, the IC50 (A431 WT) was 409 nM and the AUC(0-t) [5] was 2340 ng·h/mL. The Cmax [5] was 503 ng/mL, the half-life [5] was 3 h and the IC50 [3] was 13.2 nM.
`Cn1ncc2c1OCC1(CCCC1)Cn1nc(N3CC[C@](C)(O)C3)c3cnc(cc31)Nc1ccnc-2n1` [Example 23, (S)-3-methyl-1-(1'-methylspiro(cyclopentane-1,6'-8-oxa-3-aza-4(6,1)-pyrazolo[4,3-c]pyridina-2(2,4)-pyrimidina-1(4,5)-pyrazolacyclooctaphane)-3'-yl)pyrrolidin-3-ol] gave an IC50 [1] of 8.1 nM, an IC50 (A431 WT) of 771 nM and an IC50 [2] of 3.5 nM. The IC50 [3] was 19.5 nM and the IC50 [4] was 7.8 nM.
For `Cn1ncc2c1OCC1(CCCC1)Cn1nc(N3CC[C@@](C)(O)C3)c3cnc(cc31)Nc1ccnc-2n1` [Example 24, (R)-3-methyl-1-(1'-methylspiro(cyclopentane-1,6'-8-oxa-3-aza-4(6,1)-pyrazolo[4,3-c]pyridina-2(2,4)-pyrimidina-1(4,5)-pyrazolacyclooctaphane)-3'-yl)pyrrolidin-3-ol], the IC50 [1] was 6.1 nM, the IC50 (A431 WT) was 378 nM and the IC50 [2] was 0.7 nM. The IC50 [4] was 4.4 nM.
Work on `Cn1ncc2c1OCC1(CCC1)Cn1nc(N3CC(CS(C)(=O)=O)C3)c3cnc(cc31)Nc1ccnc-2n1` [Example 25, 1'-methyl-3'-(3-((methylsulfonyl)methyl)azetidin-1-yl)s piro(cyclobutane-1,6'-8-oxa-3-aza-4(6,1)-pyrazolo[4,3-c]pyridina-2(2,4)-pyrimidina-1(4,5)-pyrazolacyclooctaphane)] yielded an IC50 [1] of 106 nM, an IC50 (A431 WT) of 571 nM and an IC50 [2] of 42.6 nM. It also gave an IC50 [3] of 123 nM and an IC50 [4] of 66.5 nM.
Compound `Cn1ncc2c1OCC1(CCCC1)Cn1nc(N3CC(CS(C)(=O)=O)C3)c3cnc(cc31)Nc1ccnc-2n1` [Example 26, 1'-methyl-3'-(3-((methylsulfonyl)methyl)azetidin-1-yl)s piro(cyclopentane-1,6'-8-oxa-3-aza-4(6,1)-pyrazolo[4,3-c]pyridina-2(2,4)-pyrimidina-1(4,5)-pyrazolacyclooctaphane)] has an IC50 [1] of 28.5 nM, an IC50 (A431 WT) of 645 nM and an IC50 [2] of 16.3 nM. For the same compound, the IC50 [3] was 33.5 nM and the IC50 [4] was 11.4 nM.
Work on `Cn1ncc2c1OCC1(CCCC1)Cn1nc(N3CC[C@H](CS(=O)(=O)C4CC4)C3)c3cnc(cc31)Nc1ccnc-2n1` [Example 40, (S)-3'-(3-((cyclopropylsulfonyl)methyl)pyrrolidin-1-yl)-1'-methylspiro(cyclopentane-1,6'-8-oxa-3-aza-4(6,1)-pyrazolo[4,3-c]pyridina-2(2, 4)-pyrimidina-1(4,5)-pyrazolacyclooctaphane)] yielded an IC50 [1] of 0.7 nM, an IC50 (A431 WT) of 320 nM and an AUC(0-t) [5] of 4940 ng·h/mL. The Cmax [5] was 1350 ng/mL, the half-life [5] was 3.5 h and the IC50 [3] was 2.1 nM.
